US5739319A, “Phthalocyanine or naphthalocyanine derivative” (Orient Chemical Industries, Ltd., priority 1995, dated 1998)

Key:
[1] = Solubility at room temperature; assay type: physicochemical; settings: for Solubility, Acetone: in words
Protocol: Then, solubility at room temperature of the resulting compound is measured.

[2] = background statement, in words; cited from earlier work

Solubility, DMF [1] [%] | Solubility, Acetone [1] | Solubility, Dilute aqueous alkaline solution [1] [%] | Solubility, Methanol [1] [%] | Solubility, Water [1] [%] | Substance | solubility in an organic solvent [2] | water-solubility [2]
> 2.0 | insoluble | < 1.5 | < 0.1 |  | tetrakis(sulfobenzamide) copper naphthalocyanine [Example 5] |  | 
 |  |  |  |  | C.I. Solvent Blue-70 | soluble in an organic solvent | 
 | insoluble |  | > 5 | > 10 | tetrakis(sulfobenzamide) phthalocyanine [Example 2] |  | 
 |  |  |  |  | Tetrasulfonic acid copper phthalocyanine [C.I. Acid Blue-249] |  | insufficient
> 2.0 | insoluble | < 1.5 | < 0.1 |  | tetrakis(sulfobenzamide) nickel naphthalocyanine [Example 4] |  | 
 | insoluble |  | > 5 | > 10 | tetrakis(sulfobenzamide) copper phthalocyanine [Example 1] |  | 
